The text below walks through data of patent US20250115571A1, “OXOPIPERAZINE DERIVATIVES” (Inthera Bioscience AG, priority 2017, published 2025).

In experiment [1] the test system is CaSki cells. Briefly: Colony Formation Assay (CFA), 14 days. It is filed as cell-based. As to conditions: Homo sapiens, Ca-Ski, 336 h; for inhibition at 0.7 µM: colony formation assay, class by % inhibition at 0.7, 6 or 50 μM. From the text: Cell culture: CaSki cells were obtained from CLS GmbH, Eppelheim, Germany (cat. 300145) and subcultured in ready-to-use RPMI1640 Media (CLS GmbH cat. 820700) after addition of “Antibiotic Antimycotic Solution” (Sigma-Aldrich, St Louis, USA, cat. A5955) at 1:100 dilution. CaSki cells were expanded and aliquots kept frozen in liquid nitrogen according to manufacturer's instructions. Once thawed, aliquots were passaged every second or third day at a seed density of 20′000 cells/cm^2; and used for a maximum of twenty passages.
Preparation of the cells for CFA: Cell culture flasks were rinsed twice with Ca++/Mg++-free Phosphate-Buffered Saline (DPBS, CLS GmbH cat. 860015) and incubated with Accutase (CLS GmbH cat. 830100) for 15 min at 37° C. Cells were resuspended in a four-fold volume of ready-to use RPMI, centrifuged at 300 g for 10 minutes, the supernatant discarded and the cells resuspended in ready-to-use RPMI1640 by pipetting up and down ten times with a serological pipette. Cell density was determined with a Via-1 Cassette (Chemometec, Allerod, Denmark) on a Nucleocounter NC 3000 (Chemometec). The required amount of cells was first diluted 1:10 in ready-to-use RPMI; cells pipetted five times up-down with a serological pipette; and the 1:10 solution added to the final volume needed for the whole assay setup. Cells were mixed again by pipetting up and down twenty times with a serological pipette. The final cell density was 70 cells/ml.
Seeding: Cells were seeded column-wise in 6-well plates, while triplicates were treated row-wise. Three ml cell suspension solution (210 cells) were added per well.
Treatment: Compound stock solutions were prepared at a concentration of 30 mM in 50% DMSO/50% water; and diluted in the same solution so that the volume added to the wells was of 5 μl and the final DMSO well concentration 0.08%. Untreated cells (negative controls) were incubated in a) medium only; and b) 0.08% DMSO. […] Tests showing less than 75% or more than 95% inhibition were repeated. The plates were swirled gently after addition of the compounds and the cells incubated for 14 days at 37° C. Culture incubation solutions were replaced after one week.
Staining: Colonies were washed twice with ice-cold DPBS and fixed on ice with 1 ml ice-cold 10% methanol solution for 30 min. The methanol solution was removed and colonies incubated with 0.1% Crystal Violet/DBPS for 20 min at room temperature. The wells were rinsed with water at room temperature, let dry and colonies were counted. Compounds e.g., compounds of Table 2 and 3 were classified as follows: […]

The subject of experiment [2] is PC3. The experiment can be described thus: 9-day colony survival assay (CFA). It is filed as cell-based. The following applies: Homo sapiens, PC-3, 216 h, PC3 (prostate), read-out: GI50 (50% growth inhibition).
The subject of experiment [3] is A549. Briefly: 9-day colony survival assay (CFA). The experiment is classed as cell-based. As to conditions: Homo sapiens, 216 h, A549 (lung), read-out: GI50 (50% growth inhibition).
Experiment [4] deals with CaSki. Briefly: 9-day colony survival assay (CFA). It is filed as cell-based. The following applies: Homo sapiens, Ca-Ski, 216 h, CaSki (cervix), read-out: GI50 (50% growth inhibition). From the text: Cell culture. CaSki cells (cervical cancer) were obtained from CLS GmbH, Eppelheim, Germany (cat #300145) and subcultured in ready-to-use RPMI1640 Media (CLS #820700) after addition of “Antibiotic Antimycotic Solution” (Sigma-Aldrich, St Louis, USA) at 1:100 dilution. The cells were expanded, and aliquots kept frozen in liquid nitrogen according to manufacturer's instructions; tested for mycoplasma contamination and genotyped (Microsynth AG, Balgach, Switzerland). Once thawed, aliquots were passaged every second or third day at a seed density of 20′000 cells/cm^2; and used for a maximum of twenty passages. For passaging, cell culture flasks were rinsed twice with Ca++/Mg++-free Phosphate-Buffered Saline (DPBS, CLS #860015) and incubated with Accutase (CLS #830100) for 15 min at 37° C. Cells were resuspended in a four-fold volume of ready-to-use RPMI, centrifuged at 300 g for ten minutes, the supernatant discarded and the cells resuspended in ready-to-use RPMI1640 by pipetting up and down five times with a serological pipette. Cell density was determined with a Via-1 Cassette (Chemometec, Allerod, Denmark) on a Nucleocounter NC 3000 (Chemometec). Where not stated, consumables and chemicals were purchased from well-known suppliers.
Preparation of the cells for CFA. Cell culture flasks were rinsed twice with DPBS and incubated with Accutase for 15 min at 37° C. Cells were resuspended in a four-fold volume of ready-to use RPMI, centrifuged at 300 g for ten minutes, the supernatant discarded and the cells resuspended in ready-to-use RPMI1640 by pipetting up and down ten times with a serological pipette. Cell density was determined with a Via-1 Cassette on a Nucleocounter NC 3000. The required amount of cells was first diluted 1:10 in ready-to-use RPMI; cells pipetted five times up-down with a serological pipette; and the 1:10 solution added to the final volume needed for the whole assay setup. Cells were mixed again by pipetting up and down twenty times with a serological pipette. The cell density used for the experiment was of 140 cells/ml.
Seeding. Cells were seeded row-wise in 12-well plates, while triplicates were treated column-wise (i.e. all the first rows were seeded first, then the second rows, and finally the third rows). One and a half ml cell suspension solution (a total of 210 cells) were added per well.
Treatment. Compound stock solutions were prepared at a concentration of 30 mM in 50% DMSO/50% water; and diluted in the same solution so that the volume added to the wells was of 2.5 μl and the final DMSO well concentration of 0.08%. Untreated cells (negative controls) were incubated in a) medium only; and b) 0.08% DMSO. […] The plates were swirled gently after addition of the compounds and the cells incubated for nine days at 37° C. Culture incubation solutions were replaced after five days.
Staining. Colonies were washed twice with ice-cold DPBS and fixed on ice with 1 ml ice-cold 10% methanol solution for 30 min. The methanol solution was removed and colonies incubated with 0.1% Crystal Violet/DBPS for 20 min at room temperature. The wells were rinsed consecutively with 1.5, 1, and 0.5 ml water at room temperature and let dry.
Destaining and data evaluation. […] Absorbance was measured at 600 nm with a SpectraMax M2e reader (Molecular Devices, Sunnyvale, CA, USA). Percentage of colony formation was calculated from the average of the well triplicates compared to the untreated DMSO controls after subtraction of blank values. […]

The test system of experiment [5] is HCT116. The experiment can be described thus: 9-day colony survival assay (CFA). The experiment is classed as cell-based. The following applies: Homo sapiens, HCT-116, 216 h, HCT116 (colon), read-out: GI50 (50% growth inhibition).
Experiment [6] deals with HPV-positive head-and-neck squamous cell carcinoma model #HN11303. The experiment can be described thus: Patient-derived xenograft mouse model for head-and-neck squamous cell carcinoma (HN11303). The experiment is classed as in vivo. The following applies: subcutaneous HPV-positive HNSCC model, female NMRI nu/nu mice. The method, then: Female NMRI nu/nu mice were injected with cells derived from a human head-and-neck cancer (model #HN11303, an HPV-positive head-and-neck squamous cell carcinoma, EPO-GmbH, Berlin, Germany). The cells were inoculated subcutaneously into the left flank of 40 mice. Thirteen days later tumors reached a mean volume of approximately 107 mm^3, and mice were randomly assigned to five treatment groups of each eight mice (TABLE 23). Body weights were measured twice weekly. Tumor burden was assessed by caliper measurement twice weekly. Dosing breaks were applied when tolerability issues arose (body weight loss>10). The study was terminated five weeks post first dosing. The experiment was performed in the EPO animal testing facility (Experimental Pharmacology and Oncology GmbH, 13125 Berlin-Buch, Germany).
In general terms: A xenograft is tissue or cells of one species grown in another, often human tumour cells in immunodeficient mice.

Bounds are passed on as bounds.

On to `CC(C)(C)C[C@@H](C(=O)N1CCC(CC(N)=O)CC1)N1CCN[C@@H](CC2CC2)C1=O` [Compound 94, (1-{(S)-2-[(S)-3-(Cyclopropylmethyl)-2-oxo-1-piperazinyl]-4,4-dimethylvaleryl}-4-piperidyl)acetamide], for which the inhibition (as a rule, the change of the read-out against control, counted positive when it falls) at 0.7 µM in experiment [1] is below 0%.
Still for that read-out and setting: next, `CCCC[C@@H]1NCCN([C@@H](CC2CC2)C(=O)N2CCC(CC(N)=O)CC2)C1=O` [Compound 106, (1-{(S)-2-[(S)-3-Butyl-2-oxo-1-piperazinyl]-3-cyclopropylpro-pionyl}-4-piperidyl)acetamide]: below 0%.
Compound `CC(C)C[C@@H](C(=O)N1CCC(CC(N)=O)CC1)N1CCN[C@@H](CC(C)(C)C)C1=O` [Compound 114, (1-{(S)-2-[(S)-3-Neopentyl-2-oxo-1-piperazinyl]-4-methylvaleryl}-4-piperidyl)acetamide] showed an inhibition at 0.7 µM in experiment [1] below 0%.
As for `CC(C)C[C@@H]1NCCN([C@@H](CC(C)C)C(=O)N2CCC3(C[C@@H]2C)O[C@H]2CN(C)CC[C@H]2O3)C1=O` (stereo partly shown) [Compound 296], in experiment [1], the inhibition at 0.7 µM is below 0%.
On to `CC(C)C[C@H]1C(=O)N([C@@H](CC(C)C)C(=O)N2CCC3(C[C@@H]2C)OCC(CN2CCCC2)CO3)CCN1C` (stereo partly drawn) [Compound 287, (3S)-4-methyl-1-[(2S)-4-methyl-1-oxo-1-[(3s,6s,8S)-8-methyl-3-(pyrrolidin-1-ylmethyl)-1,5-dioxa-9-azaspiro[5.5]undec-an-9-yl]pentan-2-yl]-3-(2-methylpropyl)piper-azin-2-one (^≠), isomer Z], for which the GI50 (as a rule, the concentration at which growth is held to half of that of the control) worked out at 7 nM in experiment [2], 20 nM in experiment [3], 13 nM in experiment [4] and 1.5 nM in experiment [5].
Consider `CC(C)C[C@@H]1NCCN([C@@H](CC(C)C)C(=O)N2CCC(Cc3ncc[nH]3)CC2)C1=O` [Compound 57, (S)-1-[(S)-1-({4-[(1H-Imidazol-2-yl)methyl]-1-piperidyl}carbonyl)-3-methylbutyl]-3-isobutyl-2-piperazinone], for which the inhibition at 10 µM in experiment [1] (10 μM, reference compound standard treatment, 14 days) is 80 to 90%. Besides, the “mean TV” value stood at 0.1073 cm^3 in experiment [6] (day 13); 0.1106 cm^3 in experiment [6] (day 15); 0.1166 cm^3 in experiment [6] (day 18); 0.1081 cm^3 in experiment [6] (day 21); 0.1233 cm^3 in experiment [6] (day 25); 0.1421 cm^3 in experiment [6] (day 29). For the same compound, the “mean TV” value in experiment [6] (day 33) amounted to 0.2009 cm^3; in experiment [6] (day 36) it was 0.1776 cm^3.
In turn, `CC(C)C[C@@H]1NCCN([C@@H](CC(C)C)C(=O)N2CCC3(C[C@@H]2C)O[C@H]2C[C@@H](N(C)C)C[C@H]2O3)C1=O` (stereo partly drawn) [Compound 292, (S)-1-[(S)-1-({(1R,5S,2′S)-7-(Dimethylamino)-2′-methylspiro[2.4-di-oxabicyclo[3.3.0]oc-tane-3,4′-piperidin]-1′-yl}carbonyl)-3-methylbutyl]-3-isobutyl-2-piperazinone] displayed an inhibition at 0.7 µM in experiment [1] below 0%.
On the same count and under the same terms, next, `CC(C)C[C@@H]1NCCN([C@@H](CC(C)C)C(=O)N2CCC3(C[C@@H]2C)OCC(c2nccn2C)CO3)C1=O` (stereo partly drawn) [Compound 260, (S)-1-[(S)-1-({(S)-8-Methyl-3-(1-methyl-1H-imidazol-2-yl)-1,5-dioxa-9-aza-9-spiro[5.5]un-decyl}carbonyl)-3-methylbutyl]-3-isobutyl-2-piperazinone]: below 0%.
Still for that read-out and setting: next, `CC(C)C[C@@H]1NCCN([C@H](C(=O)N2CCC(CC(N)=O)CC2)C(C)C)C1=O` [Compound 90, (1-{(S)-2-[(S)-3-Isobutyl-2-oxo-1-piperazinyl]-3-methylbutyryl}-4-piperidyl)acetamide]: below 0%; `CC(C)C[C@@H]1NCCN([C@@H](CC(C)C)C(=O)N2CCC3(C[C@@H]2C)OCC(c2ccccn2)CO3)C1=O` (stereo partly drawn) [Compound 285, (S)-1-[(S)-1-({(S)-8-Methyl-3-(2-pyridyl)-1,5-dioxa-9-aza-9-spiro[5.5]un-decyl}carbonyl)-3-methylbutyl]-3-isobutyl-2-piperazinone]: below 0%; `CC(C)C[C@@H]1NCCN([C@@H](CC(C)C)C(=O)N2CCC3(C[C@@H]2C)OC2CN(C)C[C@@H]2O3)C1=O` (stereo partly drawn) [Compound 300, (S)-1-[(S)-1-({(2′S)-7-Methyl-2′-methylspiro[2.4-dioxa-7-azabicyclo[3.3.0]oc-tane-3,4′-piperidin]-1′-yl}carbonyl)-3-methylbutyl]-3-isobutyl-2-piperazinone]: below 0%.
